Experimental data from patent publication US4698350A, “1-ethyl-6-fluoro-1,4-dihydro- 7-(2,6-dimethyl-4-pyridinyl)-4-oxo-3-quinolinecarboxylic acid and antibacterial use thereof” (Sterling Drug Inc., priority 1984, dated 1987).
≈ marks a conversion by molar mass, not a printed value.

Tests used:
Experiment in all cases: In vitro antibacterial MIC/MBC test
Type in all cases: cell-based
S. aureus Smith = settings: Staphylococcus aureus
Description: (§1) Win 52,522 and Win 35,439 were solubilized in 0.1 ml of 0.5 N NaOH/mg of compound and diluted in sterile distilled water to 160 mcg/ml. Vancomycin and methicillin were solubilized in sterile distilled water to 1250 mcg/ml of base compound. The stock solutions were sterilized by filtration through membrane filters with a 0.45 μm pore size.
(§2) The bacterial cultures listed in Table I (hereinbelow) were grown overnight at 37° C. in MHB for all cultures except the Streptococcus strains. These were grown in BHI+10% NHS. The overnight broth cultures were adjusted to an optical density of 0.10 (650 nm, B L Spectronic 20) in sterile distilled water and subsequently diluted to 6.7×10^6 cells/ml in MHB or BHI+1% NHS.
(§3) Serial two-fold dilutions of the compound solutions were prepared in MHB (or in BHI+1% NHS for tests with Streptococci) and dispensed into 96-well microtiter trays in a volume of 0.1 ml/well using a Sandy Springs (Bellco Glass Co.) dispenser. The trays were then inoculated with 0.0015 ml of a suspension containing 6.7×10^6 cells/ml of the appropriate inoculum using a MIC-2000 inoculator (Dynatech Corp.) resulting in a final inoculum of approximately 1×10^4 cells/well or 1×10^5 cells/ml. The trays were incubated at 37° C. for 18-20 hours and the minimal inhibitory concentration (MIC), defined as the lowest concentration of compound to inhibit visible bacterial growth, was recorded.
(§4) After the MIC values were recorded, the contents in the microtiter trays were thoroughly mixed on a Bellco Mini-orbital Shaker (Bellco Glass Co.) for 3 min. at a setting of 8. A portion (0.0015 ml) from each well was then transferred via an MIC-2000 inoculator to plates containing MHA or BHI agar+10% NHS. The plates were incubated at 37° C. for 18-20 hrs. The minimal bactericidal concentration (MBC), defined as the lowest concentration of compound that prevented the formation of a recognizable colony on the agar surface, was recorded.

S. pneumoniae Type I = settings: Streptococcus pneumoniae
Description: as §1, §2, §3, §4

S. aureus 21-81A = settings: Staphylococcus aureus, 2181A
Description: as §1, §2, §3, §4

S. aureus S-234 = settings: Staphylococcus aureus, S234
Description: as §1, §2, §3, §4

S. pneumoniae Type III = settings: Streptococcus pneumoniae
Description: as §1, §2, §3, §4

S. epidermidis 2-1-B = settings: Staphylococcus epidermidis, 21B
Description: as §1, §2, §3, §4

S. aureus S-500 = settings: Staphylococcus aureus, S500
Description: as §1, §2, §3, §4

S. aureus Glorgio = settings: Staphylococcus aureus
Description: as §1, §2, §3, §4

S. aureus 39881 = settings: Staphylococcus aureus, 39881
Description: as §1, §2, §3, §4

S. aureus 24-81 = settings: Staphylococcus aureus, 2481
Description: as §1, §2, §3, §4

S. faecalis (8043) = settings: Enterococcus faecalis, ATCC8043
Description: as §1, §2, §3, §4

S. pyogenes C203 = settings: Streptococcus pyogenes, C203
Description: as §1, §2, §3, §4

S. epidermidis (17917) = settings: Staphylococcus epidermidis, ATCC17917
Description: as §1, §2, §3, §4

S. aureus 34-81 = settings: Staphylococcus aureus, 3481
Description: as §1, §2, §3, §4

S. faecalis 4510 = settings: Enterococcus faecalis, 4510
Description: as §1, §2, §3, §4

S. aureus 41-81 = settings: Staphylococcus aureus, 4181
Description: as §1, §2, §3, §4

S. aureus 10-81 = settings: Staphylococcus aureus, 1081
Description: as §1, §2, §3, §4

S. faecalis (11700) = settings: Enterococcus faecalis, ATCC11700
Description: as §1, §2, §3, §4

S. aureus 59-81 = settings: Staphylococcus aureus, 5981
Description: as §1, §2, §3, §4

S. aureus 13-8-A = settings: Staphylococcus aureus, 138A
Description: as §1, §2, §3, §4

S. enterococcus 0-2-13 = settings: Enterococcus, 0213
Description: as §1, §2, §3, §4

S. pyogenes 7948-15 = settings: Streptococcus pyogenes, 794815
Description: as §1, §2, §3, §4

SMILES: CN[C@H](CC(C)C)C(=O)N[C@H]1C(=O)N[C@@H](CC(N)=O)C(=O)N[C@H]2C(=O)N[C@H]3C(=O)N[C@H](C(=O)N[C@H](C(=O)O)c4cc(O)cc(O)c4-c4cc3ccc4O)[C@H](O)c3ccc(c(Cl)c3)Oc3cc2cc(c3O[C@@H]2O[C@H](CO)[C@@H](O)[C@H](O)[C@H]2O[C@H]2C[C@](C)(N)[C@H](O)[C@H](C)O2)Oc2ccc(cc2Cl)[C@H]1O [Vancomycin]
- MBC (S. aureus Smith): 1 µg/mL (≈ 0.69 µM)
- MIC (S. aureus Smith): 1 µg/mL (≈ 0.69 µM)
- MBC (S. pneumoniae Type I): 16 µg/mL (≈ 11 µM)
- MIC (S. pneumoniae Type I): 16 µg/mL (≈ 11 µM)
- MBC (S. aureus 21-81A): 1 µg/mL (≈ 0.69 µM)
- MIC (S. aureus 21-81A): 0.5 µg/mL (≈ 0.345 µM)
- MBC (S. aureus S-234): 1 µg/mL (≈ 0.69 µM)
- MIC (S. aureus S-234): 1 µg/mL (≈ 0.69 µM)
- MBC (S. pneumoniae Type III): 16 µg/mL (≈ 11 µM)
- MIC (S. pneumoniae Type III): ≤ 0.06 µg/mL
- MBC (S. epidermidis 2-1-B): 2 µg/mL (≈ 1.38 µM)
- MIC (S. epidermidis 2-1-B): 1 µg/mL (≈ 0.69 µM)
- MBC (S. aureus S-500): 1 µg/mL (≈ 0.69 µM)
- MIC (S. aureus S-500): 1 µg/mL (≈ 0.69 µM)
- MBC (S. aureus Glorgio): 1 µg/mL (≈ 0.69 µM)
- MIC (S. aureus Glorgio): 1 µg/mL (≈ 0.69 µM)
- MBC (S. aureus 39881): 1 µg/mL (≈ 0.69 µM)
- MIC (S. aureus 39881): 1 µg/mL (≈ 0.69 µM)
- MBC (S. aureus 24-81): 0.5 µg/mL (≈ 0.345 µM)
- MIC (S. aureus 24-81): 0.5 µg/mL (≈ 0.345 µM)
- MBC (S. faecalis (8043)): > 125 µg/mL
- MIC (S. faecalis (8043)): 1 µg/mL (≈ 0.69 µM)
- MBC (S. pyogenes C203): 16 µg/mL (≈ 11 µM)
- MIC (S. pyogenes C203): 16 µg/mL (≈ 11 µM)
- MBC (S. epidermidis (17917)): 1 µg/mL (≈ 0.69 µM)
- MIC (S. epidermidis (17917)): 1 µg/mL (≈ 0.69 µM)
- MBC (S. aureus 34-81): 0.5 µg/mL (≈ 0.345 µM)
- MIC (S. aureus 34-81): 0.5 µg/mL (≈ 0.345 µM)
- MBC (S. faecalis 4510): > 125 µg/mL
- MIC (S. faecalis 4510): 2 µg/mL (≈ 1.38 µM)
- MBC (S. aureus 41-81): 1 µg/mL (≈ 0.69 µM)
- MIC (S. aureus 41-81): 1 µg/mL (≈ 0.69 µM)
- MBC (S. aureus 10-81): 1 µg/mL (≈ 0.69 µM)
- MIC (S. aureus 10-81): 1 µg/mL (≈ 0.69 µM)
- MBC (S. faecalis (11700)): > 125 µg/mL
- MIC (S. faecalis (11700)): 1 µg/mL (≈ 0.69 µM)
- MBC (S. aureus 59-81): 1 µg/mL (≈ 0.69 µM)
- MIC (S. aureus 59-81): 1 µg/mL (≈ 0.69 µM)
- MBC (S. aureus 13-8-A): 0.5 µg/mL (≈ 0.345 µM)
- MIC (S. aureus 13-8-A): 0.5 µg/mL (≈ 0.345 µM)
- MBC (S. enterococcus 0-2-13): 16 µg/mL (≈ 11 µM)
- MIC (S. enterococcus 0-2-13): 0.25 µg/mL (≈ 0.173 µM)
- MBC (S. pyogenes 7948-15): 16 µg/mL (≈ 11 µM)
- MIC (S. pyogenes 7948-15): 16 µg/mL (≈ 11 µM)
